Results: patent US20240002441A1, “PEPTIDES AND USES THEREOF IN MODULATION OF AMYLOID-BETA PROTEIN DEGRADING PROTEASES” (priority 2020, published 2024)

How the values were obtained:
[1] = Peptide stability control, medium with no cells (Example 4); assay type: in vitro ADME; settings: media only (no cells), possible adherence to plastic
Method: HEK293 (passage 24) or Ea.hy926 (passage 37) were seeded into tissue-culture-grade 96-well plates at a density of 20,000 cells/well. After 24 hr, cells were washed with PBS and replaced with Opti-MEM reduced serum media containing SEQ ID NO:1 or SEQ ID NO:2 (9 μM). Aliquots of equal volume were taken at T=0 and 60 min. SEQ ID NO:2 was added to control wells having media (no cells) only. Samples were immediately acidified in 0.1% TFA, snap frozen in dry ice and stored in −80° C. until analysed by LCMS.
Samples were analyzed by LC-MS/MS on a Shimadzu Nexera uHPLC (Japan) coupled to a Triple Tof 5600 mass spectrometer (ABSCIEX, Canada) equipped with a duo electrospray ion source. One μL of each extract was injected onto a 2.1 mm×100 mm Zorbax C18 1.8 um column (Agilent) at 200 μL/min. Linear gradients of 1-50% solvent B over 7 min at 200 uL/min flow rate, followed by a steeper gradient from 50% to 98% solvent B in 1 min were used for peptide elution. Solvent B was held at 98% for 3 min for washing the column and returned to 1% solvent B for equilibration prior to the next sample injection. […] SEQ ID NO:1 and SEQ ID NO:2 were quantified using the […] doubly charged molecular ion from m/z 510.270 to 510.325. The data was acquired using Analyst TF 1.6 and quantification was carried out using MultiQuant 2.1.1 software (ABSCIEX, Canada).

NEP = molecular target: T1, NEP (Homo sapiens, UniProt P08473); test: NEP enzyme kinetics study with QFS (Example 5); assay type: biochemical; settings: NEP QFS 0-120 μM; pre-incubation 1 h at 37° C.
T1 construct: purchased R & D systems 1182-ZNC-010
Method: Plate reader-based enzyme assays were performed using a quenched fluorescent substrate (QFS) in a 96-well format using a SpectraMAX M4 Microplate reader (Molecular Devices). The increase in fluorescence following addition of QFS (40 μM) was taken as evidence of enzyme activity. Fluorescence was monitored over 2 h at 37° C. using κEx=320 nm and λEm=405 nm. Assays were conducted in black 96-well plates. Specific enzyme activity was expressed as a rate of substrate cleavage calculated using a standard curve of 7-methoxy-coumarin-4-acetic acid.
In all plate reader-based enzyme assays using QFS, the reaction rate (μmol of substrate cleaved/min) was calculated using linear regression analysis (GraphPad Prism software version 8.01). The reaction rates calculated were used to generate the enzyme kinetic parameters Vmax and Km through non-linear regression analysis (GraphPad Prism software, version 8.01; Michaelis-Menten equation). Where indicated, enzyme activity in the presence of peptide was expressed as a % of the enzyme alone. Data were expressed as mean±SEM and statistical significance was determined using t-tests or one-way ANOVAs followed by Tukey's post-hoc test. P<0.05 was considered as statistically significant. In all assays conducted using 96-well plates, the reaction mixtures in each well were considered an independent experiment. […]

T1 sequence (P08473 whole entry): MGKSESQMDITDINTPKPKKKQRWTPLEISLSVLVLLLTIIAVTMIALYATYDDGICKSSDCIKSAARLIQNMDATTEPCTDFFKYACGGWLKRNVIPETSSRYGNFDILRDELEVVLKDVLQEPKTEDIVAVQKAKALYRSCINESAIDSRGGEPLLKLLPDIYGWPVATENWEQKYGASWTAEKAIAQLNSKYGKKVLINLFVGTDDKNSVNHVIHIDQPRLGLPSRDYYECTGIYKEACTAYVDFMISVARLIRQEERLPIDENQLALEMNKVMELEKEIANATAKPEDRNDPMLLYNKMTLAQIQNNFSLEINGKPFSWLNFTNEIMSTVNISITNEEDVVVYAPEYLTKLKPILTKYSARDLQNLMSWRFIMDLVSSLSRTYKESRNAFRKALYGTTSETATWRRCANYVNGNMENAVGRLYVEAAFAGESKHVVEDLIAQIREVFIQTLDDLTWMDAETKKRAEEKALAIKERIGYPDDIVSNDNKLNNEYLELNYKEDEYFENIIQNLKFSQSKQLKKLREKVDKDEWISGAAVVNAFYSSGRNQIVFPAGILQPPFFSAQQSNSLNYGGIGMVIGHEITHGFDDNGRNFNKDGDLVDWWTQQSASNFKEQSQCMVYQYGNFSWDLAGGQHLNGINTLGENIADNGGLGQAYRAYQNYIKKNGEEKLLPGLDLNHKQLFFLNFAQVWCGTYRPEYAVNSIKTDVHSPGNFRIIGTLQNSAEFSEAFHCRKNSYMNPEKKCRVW

H-SLFELGKMIL-NH2 [SEQ ID NO:2, H2N-SLFELGKMIL-NH2]
amount remaining in the medium with no cells after 60 min [1]: 63%±14%
vmax of rhNEP in the presence of peptide (NEP): 0.035±0.002 μmol substrate cleaved/min
